Counter-ions that a name gives are not always drawn.

Chain of ileal bile acid cotransporter (iBAT) (Q12908 whole entry): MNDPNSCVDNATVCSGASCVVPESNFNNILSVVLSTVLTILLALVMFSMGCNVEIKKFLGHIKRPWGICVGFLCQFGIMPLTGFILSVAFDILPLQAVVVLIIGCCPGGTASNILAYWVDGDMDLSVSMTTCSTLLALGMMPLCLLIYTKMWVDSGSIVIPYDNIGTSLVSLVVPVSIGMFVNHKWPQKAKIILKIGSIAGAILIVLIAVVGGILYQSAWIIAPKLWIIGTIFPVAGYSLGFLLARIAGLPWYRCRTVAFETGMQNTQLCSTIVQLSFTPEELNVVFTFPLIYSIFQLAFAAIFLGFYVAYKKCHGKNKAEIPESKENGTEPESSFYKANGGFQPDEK

The test concerns the target ileal bile acid cotransporter (iBAT) (Homo sapiens (Human), UniProt Q12908). The experiment in a line: Human iBAT inhibition: [3H]-taurocholate uptake into HEK293 cells expressing human iBAT. The test is classed as cell-based. The settings on record: HEK293 cells transduced with human iBAT Bacmam virus, 90 minutes at ambient temperature, mean of at least 2 datapoints. The protocol:
Method for Determination of Human iBAT Inhibition:
In preparation for measurement of bile acid uptake into cells expressing the ileal bile acid cotransporter (iBAT), HEK293 cells were cultured in DMEM/F12 supplemented with 10% FBS. Twenty four hours prior to running an experiment, cells were harvested when at a confluence of 80-90%. Cells were seeded in poly-d-lysine coated plates at 50,000 cells per well, and human iBAT Bacmam virus was added such that each well contains 3.67×10e6 pfu (73.4pfu/cell). Each assay plate was covered with Breathe Easy Seal and placed in an incubator for 24 hours to allow expression of the transporter.
On the day of the uptake experiment, 10 mM HEPES was added to Hank's Balanced Salt Solution, and the pH was adjusted to 7.4 with TRIS (HBSSH). The assay buffer was prepared by adding […] [^3H]-taurocholate and 10 μM cold taurocholate to room temperature HBSSH. A separate washing buffer was prepared by adding 10 μM cold taurocholate to HBSSH (˜30 ml per assay plate) and placed on ice. Using 100% DMSO, 8 point, 3-fold dilution curves for each test compound was prepared starting at 200 μM. Similarly, an 8 point dose response curve was prepared of the control compound [(3R,5R)-3-butyl-3-ethyl-7,8-bis(methyloxy)-5-phenyl-2,3,4,5-tetrahydro-1,4-benzothiazepine 1,1-dioxide (Brieaddy, L. E. WO9605188, 1996)] starting at 1.8 mM. Drug plates were created by adding 3 μL of each concentration to a v-bottom 96-well plate then diluted 60-fold with 177 μL of assay buffer. Plates were removed from the incubator and allowed to cool to ambient temperature. Media was aspirated, and wells were washed once with 300 μL HBSSH. 50 μL of each dose response curve concentration was added in triplicate by column to the assay plates, reserving column 10 for control (assay buffer+1.67% DMSO) and columns 11 and 12 for the control compound. Plates were incubated at ambient temperature for 90 minutes then the plates were aspirated then washed 1× with 300 μL of wash buffer. 220 μL of Microscint 20 was added to each well, and the plates were sealed. The amount of [^3H]-taurocholate in cell lysate was quantitated using a microplate scintillation counter on the following day.
IC50's can be generated using the formula, y=(Vmax*x^n)/(K^n+x^n).
Molecule `CCCC[C@]1(CC)CS(=O)(=O)c2cc(CCC(=O)NS(C)(=O)=O)c(OC)cc2[C@@H](c2ccccc2)N1` [Example 11, 3-[(3R,5R)-3-butyl-3-ethyl-7-(methyloxy)-1,1-dioxido-5-phenyl-2,3,4,5-tetrahydro-1,4-benzothiazepin-8-yl]-N-(methylsulfonyl)propanamide] gave a concentration for half-maximal inhibition (IC50) of 20 nM. That is a double-digit nanomolar value.
In the case of `CCCC[C@]1(CC)CS(=O)(=O)c2cc(CP(=O)(O)O)c(OC)cc2[C@@H](c2ccccc2)N1O` [Example 54, {[(3R,5R)-3-butyl-3-ethyl-4-hydroxy-7-(methyloxy)-1,1-dioxido-5-phenyl-2,3,4,5-tetrahydro-1,4-benzothiazepin-8-yl]methyl}phosphonic acid] it was 124 nM.
In turn, `CCCC[C@]1(CC)CS(=O)(=O)c2cc(CN(CP(=O)(O)O)CP(=O)(O)O)c(OC)cc2[C@@H](c2ccccc2)N1` [Example 60, [({[(3R,5R)-3-butyl-3-ethyl-7-(methyloxy)-1,1-dioxido-5-phenyl-2,3,4,5-tetrahydro-1,4-benzothiazepin-8-yl]methyl}imino)dimethanediyl]bis(phosphonic acid) tetraammonium salt] showed a half-inhibitory concentration (IC50) of 3330 nM. This IC50 lies about 27-fold higher than the previous one.
In the case of `CCCC[C@]1(CC)CS(=O)(=O)c2cc(CCCO)c(OC)cc2[C@@H](c2ccccc2)N1` [Example 19, 3-[(3R,5R)-3-butyl-3-ethyl-7-(methyloxy)-1,1-dioxido-5-phenyl-2,3,4,5-tetrahydro-1,4-benzothiazepin-8-yl]-1-propanol] it was 622 nM; in that of `CCCC[C@]1(CC)CS(=O)(=O)c2cc(CN[C@H](C(=O)O)[C@@H](C)O)c(OC)cc2[C@@H](c2ccccc2)N1` [Example 56, N-{[(3R,5R)-3-butyl-3-ethyl-7-(methyloxy)-1,1-dioxido-5-phenyl-2,3,4,5-tetrahydro-1,4-benzothiazepin-8-yl]methyl}-L-threonine ammonium salt], 425 nM; in that of `CCCC[C@]1(CC)CS(=O)(=O)c2cc(CN[C@@H](CSSC[C@H](N)C(=O)O)C(=O)O)c(OC)cc2[C@@H](c2ccccc2)N1` [Example 53, N-{[(3R,5R)-3-butyl-3-ethyl-7-(methyloxy)-1,1-dioxido-5-phenyl-2,3,4,5-tetrahydro-1,4-benzothiazepin-8-yl]methyl}-L-cystine bis-ammonium salt], 67 nM.
In the case of `CCCC[C@]1(CC)CS(=O)(=O)c2cc(CNC(=O)CNC(CC(=O)O)CC(=O)O)c(OC)cc2[C@@H](c2ccccc2)N1` [Example 41, 3-{[2-({[(3R,5R)-3-butyl-3-ethyl-7-(methyloxy)-1,1-dioxido-5-phenyl-2,3,4,5-tetrahydro-1,4-benzothiazepin-8-yl]methyl}amino)-2-oxoethyl]amino}pentanedioic acid trifluoroacetate salt] it was 3330 nM; in that of `CCCC[C@]1(CC)CS(=O)(=O)c2cc(CN[C@@H](CCCCN)C(=O)O)c(OC)cc2[C@@H](c2ccccc2)N1` [Example 58, N^2-{[(3R,5R)-3-butyl-3-ethyl-7-(methyloxy)-1,1-dioxido-5-phenyl-2,3,4,5-tetrahydro-1,4-benzothiazepin-8-yl]methyl}-L-lysine ammonium salt], 1460 nM.
In the case of `CCCC[C@]1(CC)CS(=O)(=O)c2cc(CNC(=O)CNCCP(=O)(O)O)c(OC)cc2[C@@H](c2ccccc2)N1` [Example 40, (2-{[2-({[(3R,5R)-3-butyl-3-ethyl-7-(methyloxy)-1,1-dioxido-5-phenyl-2,3,4,5-tetrahydro-1,4-benzothiazepin-8-yl]methyl}amino)-2-oxoethyl]amino}ethyl)phosphonic acid trifluoroacetate salt] it was 4670 nM.
On to `CCCC[C@]1(CC)CS(=O)(=O)c2cc(C(=O)NCS(=O)(=O)O)c(OC)cc2[C@@H](c2ccccc2)N1` [Example 2, ({[(3R,5R)-3-butyl-3-ethyl-7-(methyloxy)-1,1-dioxido-5-phenyl-2,3,4,5-tetrahydro-1,4-benzothiazepin-8-yl]carbonyl}amino)methanesulfonic acid], for which the midpoint of inhibition, the IC50, lay at 11 nM.
